Laboratory results from publication PMC6976587, “Conversion of Broad-Spectrum Antimicrobial Peptides into Species-Specific Antimicrobials Capable of Precisely Targeting Pathogenic Bacteria” (Scientific Reports, 2020).
Converted amounts (≈) assume the structure as drawn. Residues, ends and D or L forms follow the SMILES beside them.

Experiments:
[1] = test system: panel of microbes (Gram-negative and Gram-positive bacteria); format: cell-based; settings: 16 h
Description: (§1) The antimicrobial activities of the peptides were investigated against the following bacteria: E. faecalis ATCC 29212, S. epidermidis ATCC 12228, S. aureus ATCC 29213, E. coli ATCC 25922, S. typhimurium […] and S. Pullorum […]. The MICs of the peptides were determined using a modified standard microtiter dilution method as described previously[29],[38]. Briefly, the microbial strains were cultured in MHB at 37 °C to reach mid-log phase and then diluted to 0.5-1×10^6 CFU/ml. 50 μL volumes of bacteria suspension were incubated in sterile 96-well plates with 50 μl of 2-fold serially diluted peptides at different concentrations (0.25-128 μM). Cultures with or without bacterial cells was employed as positive and negative controls, respectively. […] Each measurement was reproduced at least four times using three replicates.

E. faecalis ATCC 29212 = format: cell-based, Enterococcus faecalis; settings: ATCC 29212, 16 h
Description: as §1

S. Pullorum C7913 = format: cell-based, Salmonella Pullorum; settings: C7913, 16 h
Description: as §1

E. coli ATCC 25922 = format: cell-based, Escherichia coli; settings: ATCC 25922, 16 h
Description: as §1

[2] = test system: S. epidermidis ATCC 12228; format: cell-based, Staphylococcus epidermidis; settings: ATCC 12228, 16 h
Description: as §1

S. aureus ATCC 29213 = format: cell-based, Staphylococcus aureus; settings: ATCC 29213, 16 h
Description: as §1

S. typhimurium C7731 = format: cell-based, Salmonella typhimurium; settings: C7731, 16 h
Description: as §1

Structure (SMILES): NCCCC[C@H](NC(=O)CNC(=O)[C@H](CC(N)=O)NC(=O)[C@H](CCCCN)NC(=O)[C@H](Cc1c[nH]c2ccccc12)NC(=O)[C@H](CCCCN)NC(=O)[C@H](Cc1c[nH]c2ccccc12)NC(=O)[C@H](CCCCN)NC(=O)[C@@H](N)Cc1c[nH]c2ccccc12)C(=O)N[C@@H](Cc1c[nH]c2ccccc12)C(=O)N[C@@H](CCCCN)C(=O)N[C@@H](Cc1c[nH]c2ccccc12)C(=O)N[C@@H](CCCCN)C(=O)N[C@@H](Cc1c[nH]c2ccccc12)C(=O)O [C6] (H-WKWKWKNGKWKWKW-OH)
- MICs against the panel of microbes (range) [1]: 2 to 16 µM
- MIC (μM) Gram-positive E. faecalis 25922 (E. faecalis ATCC 29212): 16 µM (≈ 33.2 µg/mL)
- MIC (μM) Gram-negative S. Pullorum 43300 (S. Pullorum C7913): 4 µM (≈ 8.3 µg/mL)
- MIC (μM) Gram-negative E. coli 12228 (E. coli ATCC 25922): 2 µM (≈ 4.15 µg/mL)
- MIC (μM) Gram-positive S. epidermidis 7913 [2]: 8 µM (≈ 16.6 µg/mL)
- MIC (μM) Gram-positive S. aureus 1005 (S. aureus ATCC 29213): 4 µM (≈ 8.3 µg/mL)
- MIC (μM) Gram-negative S. typhimurium 29213 (S. typhimurium C7731): 8 µM (≈ 16.6 µg/mL)
